{
  "source": "paper PMC8020795",
  "about": "(Proceedings of the National Academy of Sciences of the …, 2021)",
  "key": {"orthotopic HCA-1 tumors": {"tested_on": "orthotopic HCA-1 tumors", "assay": "Orthotopic HCA-1 HCC model", "format": "in vivo, C3H mice", "conditions": "treatment alone; for Effect on tumor growth: 15 mg/kg/d SC minipump 14 d", "method": "(§1) In vivo hepatocellular carcinoma treatment studies […]\n(§2) mouse PD-1 (200 µg/mouse; BioXcell, BE0146). The therapeutic efficacy and the changes in immune cells were analyzed after two weeks of treatment. The tumor volume was calculated with the following formula: volume = width × length × height/2. […]\nHematoxylin and Eosin staining\nLung tissue was cut into small pieces and fixed in 4% PFA (in PBS) overnight before being embedded in paraffin wax. The sections were then stained with hematoxylin and eosin (H&E) and observed with an inverted microscope (IX83, Olympus, Japan).\nHCA-1 tumor-bearing mice were anesthetized, perfused via intracardiac injection with PBS and then sacrificed. Tumor tissues were collected and harvested in enzyme-containing DMEM cell culture medium (1.5 mg/mL of collagenase type 1A and hyaluronidase; Sigma).\nThe tissues were cut and ground into smaller pieces and then digested for 1 h at 37 °C to form suspensions of single tumor cells. The suspensions were filtered through a 70-µm cell strainer (Corning, Manassas, VA), and the cells were then incubated with rat anti-mouse CD16/CD32 mAbs to block Fc receptors. After washing 3 times and resuspending in cold flow buffer (1% BSA, 0.1% NaN3 in PBS), the single-cell suspensions were incubated with monoclonal anti-mouse F4/80-PE (eBiosciences, San Diego, CA), 7-AAD, CD3e-APC, CD8a-PE-Cy7, CD45-FITC, CD4-PE (BD Biosciences, East Rutherford, NJ), CD86-APC-"}, "orthotopic JHH-7 tumors": {"tested_on": "orthotopic JHH-7 tumors", "assay": "Orthotopic JHH-7 HCC model", "format": "in vivo, nude mice", "conditions": "treatment alone, 15 mg/kg/d SC minipump 14 d", "method": "as §1, §2"}, "HCA-1 cells": {"tested_on": "HCA-1 cells", "assay": "Western blot of phospho-ERK and phospho-AKT after CXCL12 stimulation", "format": "cell-based, murine", "method": "(§3) Western blotting was conducted by following standard procedures. HCA-1 or JHH-7 cells (10^5 cells per well) were seeded in 12-well plates (Costar, IL), incubated for 12 h and […]\n(§4) containing (100 ng/mL) serum-free medium. After 24 h, the cells were lysed in RIPA buffer on ice for 30 min, and samples were collected and loaded with 4× Laemmli Sample buffer (Bio-Rad, Hercules, CA). The samples were separated on a 10% SDS-PAGE gels and transferred to PVDF membranes. After blocking with skim milk for 1 h, the membranes were incubated at 4°C overnight with primary antibodies against p -AKT, AKT, p-ERK, ERK (Cell Signaling, Danvers, MA) or β-actin (Sigma-Aldrich, St. Louis, MO) before incubation with HRP-conjugated secondary antibodies (Antibodies Inc., Davis, CA) for 1 h. […]\n(§5) Total RNA was extracted from HCA-1 cells using the RNeasy Mini Kit (Qiagen, CA, USA). cDNAs were synthesized using the High-Capicity cDNA Reverse Transcription Kit […]\n(§6) Biosystems, CA, USA) on a QPCR System. The comparative threshold cycle method was used to calculate fold change in gene expression, which was normalized to β-actin as a […]"}, "JHH-7 cells": {"tested_on": "JHH-7 cells", "assay": "Western blot of phospho-ERK and phospho-AKT after CXCL12 stimulation", "format": "cell-based, human", "method": "as §3, §4, §5, §6"}, "[1]": {"conditions": "SC, mice, n = 3"}, "hERG (human K+ channel)": {"target": "T1, hERG (human K+ channel) (Homo sapiens, UniProt Q12809)", "T1 construct": "host or cells: CHO (hERG-CHO)", "T1 sequence (Q12809 whole entry)": "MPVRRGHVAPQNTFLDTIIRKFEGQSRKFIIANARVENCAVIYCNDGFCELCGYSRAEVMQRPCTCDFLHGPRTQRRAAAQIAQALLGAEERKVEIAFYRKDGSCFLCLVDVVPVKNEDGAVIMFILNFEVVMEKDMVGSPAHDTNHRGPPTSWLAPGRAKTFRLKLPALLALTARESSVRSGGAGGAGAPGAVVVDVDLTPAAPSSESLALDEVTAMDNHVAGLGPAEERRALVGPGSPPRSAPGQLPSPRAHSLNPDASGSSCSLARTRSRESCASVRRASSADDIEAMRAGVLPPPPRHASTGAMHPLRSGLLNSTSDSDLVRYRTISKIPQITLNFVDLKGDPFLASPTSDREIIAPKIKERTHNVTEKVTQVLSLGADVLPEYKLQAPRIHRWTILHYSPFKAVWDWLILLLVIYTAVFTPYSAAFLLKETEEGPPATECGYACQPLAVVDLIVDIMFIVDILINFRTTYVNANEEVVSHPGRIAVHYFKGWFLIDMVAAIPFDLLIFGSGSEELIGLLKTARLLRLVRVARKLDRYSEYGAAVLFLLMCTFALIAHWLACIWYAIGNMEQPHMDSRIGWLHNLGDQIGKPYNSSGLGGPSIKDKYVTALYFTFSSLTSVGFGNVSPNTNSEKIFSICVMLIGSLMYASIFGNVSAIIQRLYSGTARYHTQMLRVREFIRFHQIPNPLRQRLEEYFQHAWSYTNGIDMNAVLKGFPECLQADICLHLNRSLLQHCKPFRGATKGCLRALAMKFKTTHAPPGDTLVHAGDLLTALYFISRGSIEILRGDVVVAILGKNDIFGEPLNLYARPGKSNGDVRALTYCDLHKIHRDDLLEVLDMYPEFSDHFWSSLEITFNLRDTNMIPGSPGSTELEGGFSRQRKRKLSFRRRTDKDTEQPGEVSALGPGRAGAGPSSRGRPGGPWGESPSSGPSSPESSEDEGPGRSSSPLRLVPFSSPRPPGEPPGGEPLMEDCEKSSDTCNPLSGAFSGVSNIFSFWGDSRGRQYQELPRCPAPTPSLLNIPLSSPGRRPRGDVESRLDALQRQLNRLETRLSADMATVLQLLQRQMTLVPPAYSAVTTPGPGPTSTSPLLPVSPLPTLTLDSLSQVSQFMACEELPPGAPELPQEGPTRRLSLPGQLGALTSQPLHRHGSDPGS", "assay": "hERG patch-clamp assay (hERG-CHO, automated patch-clamp)", "format": "cell-based", "source_text": "page 16: Table: List of genes examined by real-time PCR and the primer sequences used. Genes Forward primers Reverse primers Slug [NT] Fn1 [NT] Cdh2 […] Foxc2 [NT] Zeb1 [NT] Zeb2 [NT] Twist1 [NT] Cdh1 [NT] Mta3 [NT] Cldn3 [NT] Cldn5 [NT] β-actin […] [NT] Off-target standard assays Methods employed in this study have been adapted from the scientific literature to maximize reliability and reproducibility. Reference standards were run as an integral part of each assay to ensure the validity of the results obtained. Radioligand binding Assays were performed under conditions described in the accompanying \"Methods\" section of this report by Eurofins Panlabs, Inc (Taipei, Taiwan, ROC). hERG patch-clamp assay BPRCX807 were tested in the hERG (hERG-CHO, automated patch-clamp) assay and determined at Eurofins Panlabs (Missouri, USA). The experiment was accepted in accordance with Eurofins validation Standard Operating Procedure. Selectivity Screening of various chemokine receptors The results were performed by Eurofins DiscoverX (Fremont, California, USA). The S15"}, "[2]": {"assay": "Metabolic stability in liver microsomes", "format": "in vitro ADME", "conditions": "mouse, rat, dog, and human", "source_text": "Figure S4. The metabolic stabilities of BPRCX807 in liver microsomes. BPRCX807 is […]"}, "[3]": {"assay": "Pharmacokinetics after SC administration", "conditions": "6 mg/kg", "method": "Pharmacokinetics and toxicological studies\nMale C57BL/6 mice, each weighing 23.4–25.4 g, were quarantined for 1 week before drug treatment. Compounds dissolved in 100% saline were individually given to mice (n = 3) subcutaneously (6 mg/kg; nonfasted mice). Blood samples were collected via cardiac puncture at defined time points (0 (immediately before dosing), 0.03, 0.08, 0.25, 0.5, 1, 2, and 4 h after dosing) and then stored at −80 °C. The volume of the dosing solution given was 100 µL for each mouse. The plasma samples were analyzed by liquid chromatography– tandem mass spectrometry (LC–MS/MS), and the data were calculated by a standard noncompartmental method using the Kinetica software program (InnaPhase). […]"}, "CXCR4": {"target": "CXCR4 (Homo sapiens, UniProt P61073)", "sequence (P61073 whole entry)": "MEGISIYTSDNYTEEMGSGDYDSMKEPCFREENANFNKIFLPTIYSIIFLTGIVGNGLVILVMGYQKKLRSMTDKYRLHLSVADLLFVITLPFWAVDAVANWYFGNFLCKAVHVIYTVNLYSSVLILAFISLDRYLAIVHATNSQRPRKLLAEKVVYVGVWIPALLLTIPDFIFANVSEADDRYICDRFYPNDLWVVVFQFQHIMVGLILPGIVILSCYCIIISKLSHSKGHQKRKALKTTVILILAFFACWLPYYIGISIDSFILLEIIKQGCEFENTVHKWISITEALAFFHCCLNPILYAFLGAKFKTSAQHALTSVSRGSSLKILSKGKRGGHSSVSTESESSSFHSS", "set-up": "expressed in transfected cells; host or cells: HEK293T", "conditions": "screening hit; read-out: IC50 (binding affinity toward CXCR4 receptors); cited from earlier work"}, "[4]": {"conditions": "male, C57BL/6, mouse, in vivo, sc"}},
  "data": [
    {"smiles": "CNC(=O)c1cc(Oc2ccc(NC(=O)Nc3ccc(Cl)c(C(F)(F)F)c3)cc2)ccn1", "note": "[sorafenib, reference compound]", "values": [
      {"measurement": "F4/80+ TAMs infiltration into tumor (flow cytometry)", "setting": "orthotopic HCA-1 tumors", "result": "substantially increased"},
      {"measurement": "Intratumoral mean vessel density (MVD, CD31+ staining)", "setting": "orthotopic HCA-1 tumors; day 24", "result": "significantly decrease intratumoral MVD"},
      {"measurement": "Lung metastasis (number of lung nodules)", "setting": "orthotopic HCA-1 tumors; day 24", "result": "barely reduced"}
    ]},
    {"smiles": "Cc1cc(NC2CCN(C(=O)CCNCC(=O)O)CC2)nc(NCc2cn(CCCNCCCNC3CCCCC3)nn2)n1", "note": "[BPRCX714, reference compound]", "values": [
      {"measurement": "Effect on tumor growth", "setting": "orthotopic HCA-1 tumors", "result": "no significant effect on tumor growth"},
      {"measurement": "Effect on tumor growth", "setting": "orthotopic JHH-7 tumors", "result": "no significant effect on tumor growth"}
    ]},
    {"smiles": "NCCCCN(Cc1nc2ccccc2[nH]1)[C@H]1CCCc2cccnc21", "note": "[AMD11070, reference compound]", "values": [
      {"measurement": "CXCL12-mediated cell signaling (phospho-ERK, phospho-AKT)", "setting": "HCA-1 cells", "result": "moderately inhibited"},
      {"measurement": "CXCL12-mediated cell signaling (phospho-ERK, phospho-AKT)", "setting": "JHH-7 cells", "result": "moderately inhibited"}
    ]},
    {"smiles": "c1cc(CN2CCCNCCNCCCNCC2)ccc1CN1CCCNCCNCCCNCC1", "note": "[AMD3100, reference compound]", "values": [
      {"measurement": "Maximum tolerated dose", "setting": "[1]", "result": 15, "unit": "mg/kg"},
      {"measurement": "Effect on tumor growth", "setting": "orthotopic HCA-1 tumors", "result": "no significant effect on tumor growth"},
      {"measurement": "Lung metastasis (number of lung nodules)", "setting": "orthotopic HCA-1 tumors; day 24", "result": "reduced"},
      {"measurement": "IC50", "setting": "hERG (human K+ channel)", "result": "> 100000", "unit": "nM"},
      {"measurement": "Effect on tumor growth", "setting": "orthotopic JHH-7 tumors", "result": "no significant effect on tumor growth"},
      {"measurement": "Metabolic stability in liver microsomes", "setting": "[2]", "result": "Stable"},
      {"measurement": "AUC0–4 h", "setting": "[3]; SC, mice, n = 3", "result": "7,152 ± 135 ng/mL·h"},
      {"measurement": "Cmax", "setting": "[3]; [4]", "result": 6200, "unit": "ng/mL"},
      {"measurement": "half-life", "setting": "[3]; [4]", "result": 1, "unit": "h"}
    ]},
    {"smiles": "CCN(CC)CCCC(C)Nc1cc(/C=C/c2ccc([N+](=O)[O-])cc2)nc2cc(OC)ccc12", "note": "(centres unmarked) [CSV18742]", "values": [
      {"measurement": "IC50", "setting": "CXCR4", "result": "2130 ± 110", "unit": "nM"}
    ]}
  ]
}
